ChEMBL document CHEMBL1201862, “PubChem BioAssay data set” (2004)
Active and inactive are the calls of the source.

How the values were obtained:
Type in all cases: functional
[1] = molecular target: T1, Neuropeptides B/W receptor type 1 (Homo sapiens, UniProt P48145); assay: GPR7 antagonist potency, late-stage follow-up, cell-based, fluorescence, dose response, set 5 (AID 588566)
T1 sequence (P48145 whole entry): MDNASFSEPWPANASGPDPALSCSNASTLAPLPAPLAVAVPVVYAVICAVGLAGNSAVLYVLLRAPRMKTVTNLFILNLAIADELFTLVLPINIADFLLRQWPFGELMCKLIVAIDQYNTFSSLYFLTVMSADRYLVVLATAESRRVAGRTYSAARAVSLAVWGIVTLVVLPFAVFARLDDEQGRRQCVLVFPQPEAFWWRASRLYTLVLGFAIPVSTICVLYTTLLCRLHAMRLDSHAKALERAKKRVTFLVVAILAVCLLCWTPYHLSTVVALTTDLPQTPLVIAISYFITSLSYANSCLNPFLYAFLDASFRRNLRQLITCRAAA

[2] = molecular target: T2, Melanin-concentrating hormone receptor 1 (Homo sapiens, UniProt Q99705); assay: Late-stage fluorescence-based counterscreen for antagonists of the G-protein coupled receptor 7 (GPR7): cell-based dose response assay to identify antagonists of the melanin-concentrating hormone receptor 1 (MCHR1) Set 5.
[3] = molecular target: T2, Melanin-concentrating hormone receptor 1; assay: Late-stage fluorescence-based counterscreen for antagonists of the G-protein coupled receptor 7 (GPR7): cell-based dose response assay to identify antagonists of the melanin-concentrating hormone receptor 1 (MCHR1) Set 6.
[4] = molecular target: T1, Neuropeptides B/W receptor type 1; assay: GPR7 antagonist potency, late-stage follow-up, cell-based, fluorescence, dose response, set 6 (AID 588583)
[5] = Vero cell cytotoxicity, dose response, cytotoxicity control for M. tuberculosis inhibitor project, purified and synthesized compounds, set 6 (AID 588445); conditions: Mycobacterium tuberculosis
[6] = THP-1 cell cytotoxicity, cytotoxicity control, set 5 (AID 588443)
[7] = nonselective inhibitors of cellular cAMP signaling, dose response, counter-screen for MC4R biased antagonist project, cell-based, TR-FRET cAMP detection (AID 602305);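 also: U2OS cells stimulated with forskolin near its EC80 as the cAMP inducer; potency is for inhibition of forskolin-stimulated cAMP signaling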
[8] = molecular target: T3, Neuropeptide Y receptor type 1 (Homo sapiens, UniProt P25929); assay: Fluorescence-based counterscreen for agonists of NPY-Y2: cell-based high-throughput dose response assay for agonists of NPY-Y1.
T3 sequence (P25929 whole entry): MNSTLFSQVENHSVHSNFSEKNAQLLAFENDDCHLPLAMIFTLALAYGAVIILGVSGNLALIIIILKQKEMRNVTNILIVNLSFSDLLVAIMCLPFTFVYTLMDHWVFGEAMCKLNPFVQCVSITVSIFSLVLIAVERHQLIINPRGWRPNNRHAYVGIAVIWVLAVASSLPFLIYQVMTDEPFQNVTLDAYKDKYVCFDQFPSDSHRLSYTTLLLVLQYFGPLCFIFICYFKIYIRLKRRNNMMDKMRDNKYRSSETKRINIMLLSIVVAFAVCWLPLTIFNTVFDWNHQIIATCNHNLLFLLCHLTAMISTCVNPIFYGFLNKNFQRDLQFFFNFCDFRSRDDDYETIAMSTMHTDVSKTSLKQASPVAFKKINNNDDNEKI

[9] = molecular target: T4, Neuropeptide Y receptor type 2 (Homo sapiens, UniProt P49146); assay: Fluorescence-based cell-based high-throughput dose response assay for agonists of NPY-Y2. [Related pubchem assays: 1703 (Screening assay (CNGC inhibitors).), 1359 (Screening assay (NPY-Y2 potentiators or agonists).), 1304 (Screening assay (NPY-Y1 potentiators or agonists).), 1710 (Screening assay (NPY-Y2 agonists).), 1791 (Summary AID.)]
T4 sequence (P49146 whole entry): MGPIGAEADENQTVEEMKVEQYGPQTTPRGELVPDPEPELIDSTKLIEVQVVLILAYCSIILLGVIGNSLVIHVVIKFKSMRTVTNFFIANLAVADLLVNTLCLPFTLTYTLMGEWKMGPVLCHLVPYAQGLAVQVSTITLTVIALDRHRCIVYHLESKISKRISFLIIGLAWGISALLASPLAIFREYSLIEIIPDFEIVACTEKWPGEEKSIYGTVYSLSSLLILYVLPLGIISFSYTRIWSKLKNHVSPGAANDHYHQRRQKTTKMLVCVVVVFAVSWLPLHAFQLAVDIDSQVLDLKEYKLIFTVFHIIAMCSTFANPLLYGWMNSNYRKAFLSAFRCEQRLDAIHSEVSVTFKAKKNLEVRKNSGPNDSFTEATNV

[10] = system: HEK293; assay: Fluorescence-based counterscreen for potentiators or agonists of NPY-Y2: cell-based high-throughput dose response assay to identify inhibitors of cyclic nucleotide gated ion channel (CNGC) activity. In this assay, the parental HEK293 cell line transfected with a cyclic-nucleotide gated ion channel (CNGC)-based cAMP sensor is used to measure inhibition of isoproterenol-induced CNGC activity by test compound.; conditions: Homo sapiens;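 also: stimulus is 1 µM isoproterenol at EC100 plus PDE inhibitor Ro 20-1724 at 25 µM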
[11] = molecular target: Melanocortin receptor 4 (Homo sapiens, UniProt P32245); assay: MC4R antagonist potency on cAMP, dose response, cell-based, TR-FRET, biased antagonists (AID 602298);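 also: antagonist potency against agonist-stimulated cAMP production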
[12] = molecular target: T5, High affinity choline transporter 1 (Homo sapiens, UniProt Q9GZV3); assay: CHT inhibitors, dose response, cell-based, 10-point CRC, membrane potential dye (AID 588401);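 also: membrane potential dye fluorescence of choline-evoked depolarization via CHT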
T5 sequence (Q9GZV3 whole entry): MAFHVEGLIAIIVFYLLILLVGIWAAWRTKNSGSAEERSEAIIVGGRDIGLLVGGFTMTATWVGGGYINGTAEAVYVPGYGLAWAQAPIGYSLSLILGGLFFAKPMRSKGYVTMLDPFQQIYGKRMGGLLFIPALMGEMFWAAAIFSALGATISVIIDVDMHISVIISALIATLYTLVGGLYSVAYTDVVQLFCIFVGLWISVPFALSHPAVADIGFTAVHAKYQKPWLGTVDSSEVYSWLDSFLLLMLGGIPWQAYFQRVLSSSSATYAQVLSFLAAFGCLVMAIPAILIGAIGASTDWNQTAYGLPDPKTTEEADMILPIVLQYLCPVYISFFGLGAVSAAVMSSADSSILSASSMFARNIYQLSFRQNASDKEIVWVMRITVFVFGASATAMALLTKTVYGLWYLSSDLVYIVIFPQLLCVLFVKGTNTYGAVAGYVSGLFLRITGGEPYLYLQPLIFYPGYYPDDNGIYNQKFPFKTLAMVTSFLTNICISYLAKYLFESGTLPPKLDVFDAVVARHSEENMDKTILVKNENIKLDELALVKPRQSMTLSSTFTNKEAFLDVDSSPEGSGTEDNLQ

[13] = molecular target: T5, High affinity choline transporter 1; assay: CHT inhibitors, dose response, cell-based, 5-point CRC, membrane potential dye (AID 504840)

T2 sequence (Q99705 whole entry): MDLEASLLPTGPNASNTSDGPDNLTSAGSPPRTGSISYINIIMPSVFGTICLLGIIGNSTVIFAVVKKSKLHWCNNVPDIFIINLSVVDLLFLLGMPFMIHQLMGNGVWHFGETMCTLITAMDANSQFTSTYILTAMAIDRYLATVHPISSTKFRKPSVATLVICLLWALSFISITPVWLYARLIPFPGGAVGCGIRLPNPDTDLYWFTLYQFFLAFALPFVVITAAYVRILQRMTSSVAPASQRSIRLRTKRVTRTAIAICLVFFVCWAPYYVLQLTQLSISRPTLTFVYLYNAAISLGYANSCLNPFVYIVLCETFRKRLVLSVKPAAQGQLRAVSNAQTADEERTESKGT
Chain of Melanocortin receptor 4 (P32245 whole entry): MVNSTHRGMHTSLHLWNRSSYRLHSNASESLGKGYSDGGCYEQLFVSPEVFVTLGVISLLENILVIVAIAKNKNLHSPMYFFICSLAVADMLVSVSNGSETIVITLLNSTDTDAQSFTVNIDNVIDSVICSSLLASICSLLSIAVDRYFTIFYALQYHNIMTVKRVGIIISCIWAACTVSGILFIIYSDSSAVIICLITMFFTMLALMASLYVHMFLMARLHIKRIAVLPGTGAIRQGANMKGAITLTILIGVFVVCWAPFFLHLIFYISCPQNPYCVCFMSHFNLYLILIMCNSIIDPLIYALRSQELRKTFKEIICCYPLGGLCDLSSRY

COc1ccc(Oc2c(Cl)cnn(Cc3ccc(C(=O)c4ccccc4)cc3)c2=O)cc1
IC50 [1]: 5.25 µM (active)
IC50 [2]: 2.46 µM (active)

N#CC(c1ccc(F)cc1F)c1c(Cl)cnn(Cc2cccc3ccccc23)c1=O (stereo not drawn)
IC50 [3]: 0.214 µM (active)
IC50 [4]: 0.214 µM (active)

O=C(c1ccc(CNc2c(N3CCCC3)c(=O)c2=O)cc1)N1CC=C(c2ccccc2)CC1
CC50 [5]: > 100 µM (inconclusive)
CC50 [6]: 75.8 µM (active)

O=C(Nc1ccccc1C(=O)N1CCCC1)c1ccc(Cl)c([N+](=O)[O-])c1
IC50 [7]: > 64.6 µM (inactive)
EC50 [8]: 18.6 µM (not active)
EC50 [9]: 27.9 µM (not active)
EC50 [10]: 28 µM (not active)
IC50 [11]: 20.6 µM (inactive)

O=C(O)CC1=C(Nc2ccccc2)C(=O)N(c2ccccc2)C1c1ccc(F)cc1 (stereo not drawn)
IC50 [12]: 0.751 µM (active)
IC50 [13]: 3.9 µM (active)
